Test [1] addresses [^3 H]-LTB4 binding to guinea pig lung membranes (Cavia porcellus, UniProt H0VYV8). In words: Inhibition of [^3 H]LTB4 Binding to Guinea Pig Lung Membranes. The conditions noted are these: approximately 140 pM [^3 H]-LTB4, 45 minutes at 30° C., pH 6.5, mean -log Ki, read-out: Inhibition of [^3 H]LTB4 Binding to Guinea Pig Lung Membranes pKi (converted).
Test [2] has as its target leukotriene B4 specific receptor on the membrane of human neutrophils (Homo sapiens, UniProt Q15722). In words: biochemical. As to conditions: 0.1-0.2 nM ^3 H-LTB4, 10 minutes at 4° C., read-out: Inhibition of [^3 H]LTB4 Binding to Human Neutrophils IC50. Here is the method:
The effectiveness of compounds to inhibit the binding of leukotriene B4 to a specific receptor on the membrane of human neutrophils was measured by using an adaptation of a radio-ligand binding assay developed by Goldman and Goetzl, J. Immunol., 129, 1600 (1982). Other investigators have developed similar assays (see, e.g., Kreisle, et al., J. Exp. Med., 157, 628 (1983) and Lin, et al., Prostaglandins, 28, 837 (1984)).
Cells used in the assay were isolated by standard techniques of centrifugation on Ficoll-Hypaque, dextran 70 sedimentation and hypotonic lysis. The following procedure was used. Freshly-prepared buffy coat layers from two individuals were obtained from a local blood donor center. The cells were mixed and diluted to 484 ml with phosphate buffered saline containing heparin (10 units/ml) and heat-inactivated calf serum (5%). This was divided into 20 ml aliquots and the aliquots layered on top of Ficoll-Paque (12 ml). The material was then centrifuged at 500 g for 40 minutes at room temperature. The resulting upper layer of platelets and mononuclear cells was discarded. The lower layer containing erythrocytes and neutrophils was retained. Buffer was added (1 ml per 4 ml of lower layer) and the suspension mixed. For each milliliter of this mixture, 0.33 ml of 6% Macrodex was added. After stirring the cells were allowed to sediment for 1 hour at 37° C. The resulting erythrocyte pellet was discarded and the neutrophil enriched supernatant fluid centrifuged at 500 g for 10 minutes at 4° C. […] Subsequently, the volume was made up to 50 ml by addition of ice-cold buffer and the cells resuspended. The suspension was then centrifuged at 300 g for 10 minutes at 4° C. […] This buffer consisted of Hanks' balanced salt solution and 0.1% ovalbumin (pH 7.3).
The amount of bound ^3 H-LTB4 was then measured and compared with the amount bound in the absence of test compound. The assay was carried out in microcentrifuge tubes by adding first 10 μl test compound dissolved in DMSO, followed by adding 20 μl ^3 H-LTB4 diluted in assay buffer, and finally adding 500 μl of the cell suspension. At the end of the 10 minutes incubation, 300 μl of a mixture of dibutyl and dinonyl phthalate (7:2) were added and the tubes centrifuged for 2 minutes in a microcentrifuge. The radioactivity bound to the cell pellet was measured by scintillation spectroscopy.

Where a name gives a salt, the structure may show the parent alone.

Sequence of [^3 H]-LTB4 binding to guinea pig lung membranes (H0VYV8 1-348): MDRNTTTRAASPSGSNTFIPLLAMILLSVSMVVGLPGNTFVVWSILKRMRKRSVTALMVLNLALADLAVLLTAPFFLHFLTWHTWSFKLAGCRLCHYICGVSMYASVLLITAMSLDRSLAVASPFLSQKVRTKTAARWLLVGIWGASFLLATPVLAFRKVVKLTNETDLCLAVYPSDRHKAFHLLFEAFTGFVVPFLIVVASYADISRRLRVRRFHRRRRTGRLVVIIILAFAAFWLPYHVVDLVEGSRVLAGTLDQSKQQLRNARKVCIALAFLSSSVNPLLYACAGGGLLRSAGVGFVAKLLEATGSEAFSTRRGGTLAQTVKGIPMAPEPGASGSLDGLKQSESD
Sequence of leukotriene B4 specific receptor on the membrane of human neutrophils (Q15722 whole entry): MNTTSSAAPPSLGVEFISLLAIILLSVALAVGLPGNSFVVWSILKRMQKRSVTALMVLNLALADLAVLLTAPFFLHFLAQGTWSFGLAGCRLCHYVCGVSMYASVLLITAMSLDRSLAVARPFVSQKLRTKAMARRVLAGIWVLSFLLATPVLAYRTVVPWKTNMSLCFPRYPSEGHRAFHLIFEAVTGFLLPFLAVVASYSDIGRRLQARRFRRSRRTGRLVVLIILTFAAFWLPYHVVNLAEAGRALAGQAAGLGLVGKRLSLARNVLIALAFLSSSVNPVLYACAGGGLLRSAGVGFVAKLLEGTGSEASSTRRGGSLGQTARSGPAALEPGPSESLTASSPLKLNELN

In general, IC50 refers to the midpoint of a concentration-inhibition curve. Turning to `CCCc1cc(Oc2ccc(C(=O)O)cc2)ccc1OCCCOc1cc(O)c(C(C)=O)cc1CC` [sodium salt hydrate], the Ki in test [1] was 1000 nM. Moreover, the IC50 in test [2] was 326 nM.

With `CCCc1c(OCCCCOc2cc(O)c(C(C)=O)cc2CC)cccc1Oc1ccccc1C(=O)O` [Example 18, 2-[3-[4-(4-Acetyl-2-ethyl-5-hydroxyphenoxy)butoxy]-2-propyl-phenoxy]benzoic acid disodium salt], the Ki in test [1] was 53.7 nM. Also, the IC50 in test [2] was 94 nM.

In the case of `CCCc1c(OCCCOc2cc(O)c(C(C)=O)cc2CC)c(I)cc2c1OC(C(=O)O)CC2` (centres unmarked) [Example 6, 6-iodo-8-propyl-7-[3-[4-acetyl-2-ethyl-5-hydroxyphenoxy)propoxy]-3,4-dihydro-2H-1-benzopyran-2-caroxylic acid], in test [1], the Ki is 25.7 nM. Moreover, the IC50 in test [2] amounted to 327 nM.

For the molecule `CCc1cc(C(C)=O)c(O)cc1OCCCOc1ccc(C(=O)c2cccc(C(=O)O)c2)cc1CCC(=O)O` [Example 20, 3-[1-[2-[3-(4-acetyl-2-ethyl-5-hydroxyphenoxy)propoxy]-5-(3-carboxybenzoyl)phenyl]]propanoic acid trisodium salt hydrate], the Ki in test [1] was 6.61 nM. Further, in test [2], the IC50 was 46 nM.

Take `CCc1cc(C(C)=O)c(O)cc1OCCCOc1ccc(Oc2ccc(C(=O)O)cc2)cc1` [sodium salt hydrate]: the Ki in test [1] is 132 nM. For the same molecule, the IC50 in test [2] came to 193 nM.

Turning to `CCc1cc(C(C)=O)c(O)cc1OCCCOc1ccc2oc3ccccc3c2c1CCC(=O)O` [Example 8, 3-[1-[2-[3-(4-acetyl-2-ethyl-5-hydroxyphenoxy)propoxy]dibenzofuran]]propanoic acid disodium salt], the Ki in test [1] was 2.04 nM. The IC50 in test [2] was 43 nM.

On to `CCCc1c(OCCCOc2cc(O)c(C(C)=O)cc2CC)cccc1Oc1ccccc1C(=O)O` [Example 19, 2-[3-[3-(4-Acetyl-2-ethyl-5-hydroxyphenoxy)propoxy]-2-propylphenoxy]benzoic acid disodium salt hydrate], for which, in test [1], the Ki was 34.7 nM. The IC50 in test [2] amounted to 24 nM.

On to `CCCc1c(OCCCOc2cc(O)c(C(C)=O)cc2CC)ccc2c1OC(C(=O)O)CC2` (centres unmarked) [Example 1, 7-[3-(4-acetyl-2-ethyl-5-hydroxyphenoxy)propoxy]-3,4-dihydro-8-propyl-2H-1-benzopyran-2-carboxylic acid], for which, in test [1], the Ki was 8.13 nM.

For `CCc1cc(C(C)=O)c(O)cc1OCCCOc1ccc2ccc(OCC(=O)O)cc2c1` [Example 16, [2-[7-[3-(4-Acetyl-2-ethyl-5-hydroxyphenoxy)propoxy]naphthalenyl]oxy]acetic acid sodium salt hydrate], the Ki in test [1] was 117 nM. In addition, in test [2], the IC50 turned out to be 409 nM.

On to `CCCc1cc(Oc2cccc(C(=O)O)c2)ccc1OCCCOc1cc(O)c(C(C)=O)cc1CC` [Example 9, 3-[3-propyl-4-[3-(4-acetyl-2-ethyl-5-hydroxyphenoxy)propoxy]phenoxy]benzoic acid disodium salt], for which, in test [1], the Ki is 257 nM. In test [2], the IC50 was 158 nM.

Turning to `CCc1cc(C(C)=O)c(O)cc1OCCCOc1ccc(-c2ccccc2)cc1CCC(=O)O` [Example 11, 3-[1-[5-phenyl-2-[3-(4-acetyl-2-ethyl-5-hydroxyphenoxy)propoxy]phenyl]]propanoic acid disodium salt], in test [1], the Ki was 28.2 nM. Also, the IC50 in test [2] came out at 115 nM.

As to `CCc1cc(C(C)=O)c(O)cc1OCCCOc1cccc(Oc2cccc(C(=O)O)c2)c1` [Example 14, 3-[3-[3-(4-acetyl-2-ethyl-5-hydroxyphenoxy)propoxy]phenoxy]benzoic acid disodium salt hemihydrate], the Ki in test [1] is 174 nM. Moreover, the IC50 in test [2] is 456 nM.

Turning to `CCCc1c(OCCCOc2cc(O)c(C(C)=O)cc2CC)cccc1OCC(=O)O` [Example 3, 2-[2-propyl-3-[[3-(4-acetyl-2-ethyl-5-hydroxyphenoxy)proyl]oxy]phenoxy]acetic acid], the Ki in test [1] is 4.79 nM. Also, the IC50 in test [2] came out at 67 nM.

With `CCc1cc(C(C)=O)c(O)cc1OCCCOc1ccc2c(=O)c3cc(C(=O)O)ccc3oc2c1CCC(=O)O` [Example 15, 3-[4-[7-carboxy-3-[3-(4-acetyl-2-ethyl-5-hydroxyphenoxy)propoxy]-9-oxo-9H-xanthene]]propanoic acid trisodium salt trihydrate], the Ki in test [1] was 0.977 nM.

Take `CCCc1c(OCCCOc2cc(O)c(C(C)=O)cc2CC)cccc1OC(CC)C(=O)O` (centres unmarked) [Example 5, 2-[3-[3-(4-acetyl-2-ethyl-5-hydroxyphenoxy)propoxy)-2-propylphenoxy]butanoic acid]: the Ki in test [1] is 13.8 nM.

As for `CCc1cc(C(C)=O)c(O)cc1OCCCOc1cccc(Oc2ccccc2C(=O)O)c1` [Example 13, 2-[3-[3-(4-acetyl-2-ethyl-5-hydroxyphenoxy)propoxy]phenoxy]benzoic acid disodium salt hemihydrate], the Ki in test [1] is 182 nM. Also, the IC50 in test [2] came to 291 nM.

With `CCCc1c(OCCCOc2cc(O)c(C(C)=O)cc2CC)cccc1OCc1ccccc1C(=O)O` [Example 17, 2-[[3-[3-(4-acetyl-2-ethyl-5-hydroxyphenoxy)propoxy]-2-propylphenoxy]methyl]benzoic acid disodium salt hemihydrate], the Ki in test [1] was 170 nM. Besides, the IC50 in test [2] was found to be 127 nM.

For `CCc1cc(C(C)=O)c(O)cc1OCCCOc1ccc2c(=O)c3cc(C(=O)O)ccc3oc2c1` [Example 7, 6-[3-(4-acetyl-2-ethyl-5-hydroxyphenoxy)propoxy]-9-oxo-9H-xanthene-2-carboxylic acid disodium salt sesquihydrate], the Ki in test [1] was 741 nM. Moreover, the IC50 in test [2] amounted to 190 nM.

As to `CCCc1c(OCCCOc2cc(O)c(C(C)=O)cc2CC)cccc1OC(C)C(=O)O` (centres unmarked) [Example 4, 2-[3-[3-(4-acetyl-2-ethyl-5-hydroxyphenoxy)propoxy)-2-propylphenoxy]propanoic acid], the Ki in test [1] is 15.1 nM. Further, the IC50 in test [2] turned out to be 23 nM.

The record behind these values is US5552441A, “Leukotriene B4 antagonists” (Eli Lilly and Company, priority 1994, dated 1996).
